These results are taken from patent US20100317528A1, “HERBICIDE CONTAINING BENZOYLPYRAZOLE COMPOUND” (ISHIHARA SANGYO KAISHA, LTD., priority 2006, published 2010).

Each structure is given as a SMILES string.

Common to all, as to format: in vivo
The subject of experiment [1] is soybean (Glycine max Merr.). The experiment in a line: Test Example 2: soil application on the day after sowing, soybean. The settings on record: 250 g/ha active ingredient, observed 19th to 28th day after application; for inhibition at 250 g/ha: Glycine max, read-out: Growth inhibition rate (%) Soybean. Summed up:
(§1)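 Visual growth inhibition rate (%), judged 19 to 28 days post-treatment against non-treated plants (0) and complete kill (100), is reported. Treatment was a small-sprayer soil application one day after sowing, with the formulated compound diluted in water at 500 liter per hectare.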

The test system of experiment [2] is wheat (Triticum spp.). The experiment in a line: Test Example 2: soil application on the day after sowing, wheat. The note with it: 250 g/ha active ingredient, observed 19th to 28th day after application; for inhibition at 250 g/ha: Triticum, read-out: Growth inhibition rate (%) Wheat. From the text:
Upland field soil was put into a 1/170,000 hectare pot, and seeds of various plants barnyardgrass (Echinochloa crus-galli L.), crabgrass (Digitaria sanquinalis L.), green foxtail (Setaria viridis L.), redroot pigweed (Amaranthus retroflexus L.), prickly sida (Sida spinosa L.), velvetleaf (Abutilon theophrasti MEDIC.), rice (Oryza sativa L.), wheat (Triticum spp.), corn (Zea mays L.) and soybean (Glycine max Merr.)) were sown. On the day after sowing, wettable powders or emulsifiable concentrates of the compounds of the above formula (I) prepared in accordance with a conventional preparation method, were weighed so that the active ingredients became the prescribed amounts, and diluted with water in an amount corresponding to 500 liter per 1 hectare, followed by soil application with a small sprayer.
On the 19th to 28th day after the application, the state of growth of the respective plants was visually observed, and the herbicidal effect was evaluated by a growth inhibition rate (%) of from 0 (equivalent to the non-treated area) to 100% (complete kill).

The subject of experiment [3] is green foxtail (Setaria viridis L.). The experiment in a line: Test Example 1: foliar treatment, upland pot test, green foxtail. The settings on record: 31 g/ha active ingredient, observed 17th to 25th day after application; for inhibition at 31 g/ha: Setaria viridis, read-out: Growth inhibition rate (%) Green foxtail.
The test system of experiment [4] is barnyardgrass (Echinochloa crus-galli L.). The experiment in a line: Test Example 2: soil application on the day after sowing, barnyardgrass. The note with it: 250 g/ha active ingredient, observed 19th to 28th day after application; for inhibition at 250 g/ha: Echinochloa crus-galli, read-out: Growth inhibition rate (%) Barnyardgrass. Summed up:
as §1

Experiment [5] deals with crabgrass (Digitaria sanquinalis L.). The experiment in a line: Test Example 2: soil application on the day after sowing, crabgrass. The note with it: 250 g/ha active ingredient, observed 19th to 28th day after application; for inhibition at 250 g/ha: Digitaria, read-out: Growth inhibition rate (%) Crabgrass. The method in brief:
as §1

Experiment [6] deals with barnyardgrass (Echinochloa crus-galli L.). The experiment in a line: Test Example 1: foliar treatment, upland pot test, barnyardgrass. The note with it: 31 g/ha active ingredient, observed 17th to 25th day after application; for inhibition at 31 g/ha: Echinochloa crus-galli, read-out: Growth inhibition rate (%) Barnyardgrass.
Experiment [7] concerns corn (Zea mays L.). The experiment in a line: Test Example 1: foliar treatment, upland pot test, corn. The settings on record: 31 g/ha active ingredient, observed 17th to 25th day after application; for inhibition at 31 g/ha: Zea mays, read-out: Growth inhibition rate (%) Corn.
Experiment [8] relates to velvetleaf (Abutilon theophrasti MEDIC.). The experiment in a line: Test Example 2: soil application on the day after sowing, velvetleaf. The note with it: 250 g/ha active ingredient, observed 19th to 28th day after application; for inhibition at 250 g/ha: Abutilon theophrasti, read-out: Growth inhibition rate (%) Velvetleaf. Summed up:
as §1

The test system of experiment [9] is prickly sida (Sida spinosa L.). The experiment in a line: Test Example 2: soil application on the day after sowing, prickly sida. The note with it: 250 g/ha active ingredient, observed 19th to 28th day after application; for inhibition at 250 g/ha: Sida spinosa, read-out: Growth inhibition rate (%) Prickly sida. Summed up: as §1
Experiment [10] concerns redroot pigweed (Amaranthus retroflexus L.). The experiment in a line: Test Example 1: foliar treatment, upland pot test, redroot pigweed. The note with it: 31 g/ha active ingredient, observed 17th to 25th day after application; for inhibition at 31 g/ha: Amaranthus retroflexus, read-out: Growth inhibition rate (%) Redroot pigweed. The method in brief: (§2)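 Upland soil pots, sown; foliar spray at pigweed cotyledon–2.0 leaf, velvetleaf 0.1–1.5 leaf, rice 1.0–3.0 leaf, wheat 1.7–3.4 leaf. WP/EC formulations, prescribed a.i. rate, 500 L/ha spray volume + 0.1 vol % spreader. Visual % inhibition, d17–25.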

Experiment [11] has as its system rice (Oryza sativa L.). The experiment in a line: Test Example 1: foliar treatment, upland pot test, rice. The settings on record: 31 g/ha active ingredient, observed 17th to 25th day after application; for inhibition at 31 g/ha: Oryza sativa, read-out: Growth inhibition rate (%) Rice. Summed up:
as §2

Experiment [12] has as its system crabgrass (Digitaria sanguinalis L.). The experiment in a line: Test Example 1: foliar treatment, upland pot test, crabgrass. The settings on record: 31 g/ha active ingredient, observed 17th to 25th day after application; for inhibition at 31 g/ha: Digitaria sanguinalis, read-out: Growth inhibition rate (%) Crabgrass.
Experiment [13] deals with velvetleaf (Abutilon theophrasti MEDIC.). The experiment in a line: Test Example 1: foliar treatment, upland pot test, velvetleaf. The note with it: 31 g/ha active ingredient, observed 17th to 25th day after application; for inhibition at 31 g/ha: Abutilon theophrasti, read-out: Growth inhibition rate (%) Velvetleaf. The method in brief:
as §2

The test system of experiment [14] is soybean (Glycine max Merr.). The experiment in a line: Test Example 1: foliar treatment, upland pot test, soybean. The note with it: 31 g/ha active ingredient, observed 17th to 25th day after application; for inhibition at 31 g/ha: Glycine max, read-out: Growth inhibition rate (%) Soybean.
In experiment [15] the test system is redroot pigweed (Amaranthus retroflexus L.). The experiment in a line: Test Example 2: soil application on the day after sowing, redroot pigweed. The note with it: 250 g/ha active ingredient, observed 19th to 28th day after application; for inhibition at 250 g/ha: Amaranthus retroflexus, read-out: Growth inhibition rate (%) Redroot pigweed. The method in brief: as §1

Experiment [16] relates to corn (Zea mays L.). The experiment in a line: Test Example 2: soil application on the day after sowing, corn. The settings on record: 250 g/ha active ingredient, observed 19th to 28th day after application; for inhibition at 250 g/ha: Zea mays, read-out: Growth inhibition rate (%) Corn. The method in brief: as §1
For experiment [17], the system named is wheat (Triticum spp.). The experiment in a line: Test Example 1: foliar treatment, upland pot test, wheat. The settings on record: 31 g/ha active ingredient, observed 17th to 25th day after application; for inhibition at 31 g/ha: Triticum, read-out: Growth inhibition rate (%) Wheat. Summed up: as §2
Experiment [18] has as its system prickly sida (Sida spinosa L.). The experiment in a line: Test Example 1: foliar treatment, upland pot test, prickly sida. The settings on record: 31 g/ha active ingredient, observed 17th to 25th day after application; for inhibition at 31 g/ha: Sida spinosa, read-out: Growth inhibition rate (%) Prickly sida.
The test system of experiment [19] is green foxtail (Setaria viridis L.). The experiment in a line: Test Example 2: soil application on the day after sowing, green foxtail. The note with it: 250 g/ha active ingredient, observed 19th to 28th day after application; for inhibition at 250 g/ha: Setaria viridis, read-out: Growth inhibition rate (%) Green foxtail. Summed up: as §1
Experiment [20] relates to rice (Oryza sativa L.). The experiment in a line: Test Example 2: soil application on the day after sowing, rice. The settings on record: 250 g/ha active ingredient, observed 19th to 28th day after application; for inhibition at 250 g/ha: Oryza sativa, read-out: Growth inhibition rate (%) Rice. Summed up: as §1

Usually inhibition stands for the percentage by which the read-out fell short of the control. Take `COC(COc1c(S(C)(=O)=O)ccc(C(=O)c2cnn(C)c2O)c1C)OC` [Compound No. 1, 5-hydroxy-1-methylpyrazol-4-yl 3-(2,2-dimethoxyethoxy)-2-methyl-4-(methylsulfonyl)phenyl ketone]: the inhibition at 250 g/ha is 40% in [1]; 40% in the experiment on wheat (Triticum spp.) [2]; 100% in experiment [4]; 90% in experiment [5]; 95% in experiment [8]; 30% in experiment [9]. Further, the inhibition at 250 g/ha in experiment [15] was determined as 100%; in the experiment on corn (Zea mays L.) [16] it was 0%; in experiment [19] it was 100%; with rice (Oryza sativa L.) [20] it was 90%. The inhibition at 31 g/ha in [3] was 98%; in experiment [6], 98%; with corn (Zea mays L.) [7], 10%; in experiment [10], 98%; in the experiment with rice (Oryza sativa L.) [11], 80%; in experiment [12] it was 90%. In addition, the inhibition at 31 g/ha turned out to be 100% in experiment [13], 98% in [14], 30% with wheat (Triticum spp.) [17] and 80% in experiment [18].
As for `COc1c(S(C)(=O)=O)ccc(C(=O)c2cnn(C)c2O)c1C` [compound 143], the inhibition at 250 g/ha came out at 80% in [1]; 70% with wheat (Triticum spp.) [2]; 100% in experiment [4]; 100% in experiment [5]; 100% in experiment [8]; 90% in [9]. The inhibition at 250 g/ha in [15] is 100%; in the experiment on corn (Zea mays L.) [16], 20%; in [19] it was 100%; in the experiment on rice (Oryza sativa L.) [20], 100%. The inhibition at 31 g/ha in experiment [3] was found to be 70%; in experiment [6], 10%; in the experiment on corn (Zea mays L.) [7] it was 0%; in experiment [10], 80%; with rice (Oryza sativa L.) [11], 40%; in [12], 70%. Moreover, the inhibition at 31 g/ha in experiment [13] came out at 98%; in [14], 60%; with wheat (Triticum spp.) [17], 10%; in experiment [18] it was 70%.
Regarding `Cc1c(C(=O)c2cnn(C)c2O)ccc(S(C)(=O)=O)c1OC(F)F` [compound 146], the inhibition at 250 g/ha was found to be 0% in [1]; 0% with wheat (Triticum spp.) [2]; 90% in [4]; 100% in [5]; 40% in [8]; 90% in [9]. The inhibition at 250 g/ha in experiment [15] is 100%; in the experiment on corn (Zea mays L.) [16] it was 0%; in experiment [19], 95%; in the experiment on rice (Oryza sativa L.) [20] it was 70%. For the same compound, the inhibition at 31 g/ha in experiment [3] turned out to be 30%; in experiment [6], 80%; in the experiment on corn (Zea mays L.) [7], 0%; in experiment [10], 80%; with rice (Oryza sativa L.) [11], 20%; in experiment [12], 30%. Besides, the inhibition at 31 g/ha in [13] turned out to be 50%; in experiment [14], 60%; in the experiment with wheat (Triticum spp.) [17], 0%; in experiment [18], 40%.
Take `CCOC(=O)c1c(S(C)(=O)=O)ccc(C(=O)c2cnn(CC)c2O)c1Cl` [compound 153]: the inhibition at 250 g/ha in experiment [1] amounted to 0%; in the experiment on wheat (Triticum spp.) [2] it was 10%; in [4], 100%; in experiment [5], 100%; in [8] it was 100%; in experiment [9], 80%. In addition, the inhibition at 250 g/ha in experiment [15] is 100%; in the experiment on corn (Zea mays L.) [16] it was 10%; in experiment [19], 100%; with rice (Oryza sativa L.) [20], 70%. Besides, the inhibition at 31 g/ha was determined as 60% in experiment [3]; 90% in [6]; 0% in the experiment on corn (Zea mays L.) [7]; 90% in experiment [10]; 40% with rice (Oryza sativa L.) [11]; 80% in experiment [12]. The inhibition at 31 g/ha in [13] stood at 70%; in [14], 70%; in the experiment with wheat (Triticum spp.) [17] it was 0%; in experiment [18], 70%.
For `CCCOC(=O)c1c(S(C)(=O)=O)ccc(C(=O)c2cnn(CC)c2O)c1Cl` [compound 154], the “Growth inhibition rate (%) Soybean” value in [1] amounted to 0%; in experiment [14] it was 30%. Further, the “Growth inhibition rate (%) Wheat” value in the experiment with wheat (Triticum spp.) [2] and in the experiment on wheat (Triticum spp.) [17] was 0% each time. Further, the “Growth inhibition rate (%) Green foxtail” value in experiment [3] is on record as 60%; in experiment [19], 30%. For the same compound, the “Growth inhibition rate (%) Barnyardgrass” value is on record as 100% in experiment [4] and 40% in experiment [6]. In addition, the entries for the “Growth inhibition rate (%) Crabgrass” value in experiment [5] and in [12] were 95% and 70%, respectively. Also, the “Growth inhibition rate (%) Corn” value with corn (Zea mays L.) [7] and in the experiment with corn (Zea mays L.) [16] was 0% throughout. The “Growth inhibition rate (%) Velvetleaf” value in experiment [8] is reported as 40%; in experiment [13] it was 60%. Further, the figures for the “Growth inhibition rate (%) Prickly sida” value in [9] and in experiment [18] were 60% and 40%, respectively. Moreover, the “Growth inhibition rate (%) Redroot pigweed” value in experiment [10] is on record as 70%; in experiment [15], 100%. Also, the “Growth inhibition rate (%) Rice” value with rice (Oryza sativa L.) [11] and with rice (Oryza sativa L.) [20] was 50% each time.
